Numbered stars: 1 amine (or outer) side, 2 acyl side, 3 side chain; on linkers, the order of the positions; unused ones are H or OH. Bridge positions count the residues as written; N and C are the ends. Square brackets hold non-standard residues; d marks the D form. Peptide text beside a SMILES is read from it. I, II: the chains in the order shown. * marks the point of attachment. ξ: configuration not given here. X6 = CCc1c2c(nc3ccc(O)cc13)-c1cc3c(c(=O)n1C2)COC(=O)[C@@]3(CC)OC(=O)OCc1ccc(NC(=O)COCC(=O)NCCOCCOCCOCCOCCOCCn2nncc2CNC(=O)CCCCCN2C(=O)CC(*)C2=O)cc1; EuK = O=C(O)CC[C@H](NC(=O)N[C@@H](CCCCN*)C(=O)O)C(=O)O; Pteroyl = Nc1nc2ncc(CNc3ccc(C(=O)*)cc3)nc2c(=O)[nH]1; Dolaproine = CO[C@@H]([C@@H]1CCCN1)[C@@H](C)C(=O)O; Dil = CC[C@H](C)[C@H](NC)[C@@H](CC(=O)O)OC; X3 = O=C1CC([*:2])C(=O)N1CCCCCC(=O)[*:1]; γGlu = O=C(O)[C@H](CCC(=O)[*:2])N[*:1]; PABC = O=C(OCc1ccc(N[*:1])cc1)[*:2]; X1 = C[C@@H](N*)[C@@H](O)c1ccccc1; X2 = O=C(Cc1ccc(CN[*:1])cc1)[*:2]; NMeV = CN[C@H](C(=O)O)C(C)C; ξCit = NC(=O)NCCCC(N)C(=O)O; CO = O=C([*:1])[*:2]; ξV = CC(C)C(N)C(=O)O; ξC = NC(CS)C(=O)O
Legend:
[1] = test system: KB, LNCaP, T-47D, RT4 and NCI-H460 tumor cell lines; assay: Inhibition of tumor cell expansion, CCK8 (CB-10S); assay type: cell-based, human
Method: Cell lines: KB human oral epidermoid carcinoma cells, NCI-H460 human lung cancer cells, RT4 human bladder cancer cells, T-47D human breast cancer cells and LNcap human prostate cancer cells
The cells were prepared in advance, digested with trypsin, collected and counted; with a complete cell culture medium, KB cells were diluted to 3.5×10^4 cells/ml, LNCaP cells were diluted to 8.0×10^4 cells/ml, T-47D cells were diluted to 1.2×10^4 cells/ml, NCI-H460 cells were diluted to 2.5×10^4 cells/ml, and RT4 cells were diluted to 1.2×10^4 cells/ml; to each well of 96-well plates, 100 μl of the diluted cell solution was added; and negative control and blank control wells were set on each plate. The 96-well plates added with the cells were placed in an incubator at 37° C., 5% CO2 for culturing overnight.
The samples were diluted with a culture medium to desired concentrations (see Table 12). […]
(§1) To each well, 15 μl (10% of the liquid volume in a well) of a color developing solution from CCK-8 was added; the plates were incubated at 37° C. for an appropriate time (try to keep the OD value in the range of 1.0-2.0); the covers of the 96-well plates were removed, and the plates were read at 450 nm on a microplate reader (Molecular Devices Spectra MAX Plus). […]

[2] = molecular target: T1, FOLR1 (Homo sapiens, UniProt P15328); assay: BIAcore T200 binding affinity to FOLR1 (CM5 chip conjugated with FOLR1)
T1 construct: purchased R&D System 5646-FR
Description: Buffer: HBS-EP+ buffer 10× (GE, Cat #: BR100669), diluted 10 folds with deionized water before use.
In the experiment, CM5 chip was conjugated with ligand FOLR1 (R&D System, Cat #: 5646-FR).

[3] = test system: LNCaP (human prostate cancer cells); assay: Inhibition of cell line proliferation, CCK8; assay type: cell-based; conditions: for IC50 ratio (MMAE/conjugate) / IC50: LNCaP; for IC50: 68-72 hours, CCK8
Description: (§2) Since different cells have different sensitivity to a cell proliferation inhibitory toxicity of the payload in a ligand conjugate, the quantitative analysis may be interfered occasionally. A series of cell lines with known expression levels of receptors of different ligands were selected and tested for the response to inhibitory effects of the cell proliferation of a ligand conjugate and a single payload. The IC50 ratio of a single payload to that of a ligand conjugate in same cell line were taken to remove such interference.
Experimental operations: LNCaP and 22RV1 cells were prepared in advance, counted, and plated in 96-well cell culture plates at a cell density of 4×10^4 cells/ml and 2.0×10^4 cells/ml, respectively (100 μl/well); negative control and blank control wells were set on each plate. After adherent cell culture overnight, the diluted samples to be tested were added at 50 μl/well. The plates were placed in an incubator at 37° C., 5% CO2 and cultured for 68-72 hours. To each well, 15 μl (10% of the liquid volume in a well) of a color developing solution from CCK8 was added; and the plates were incubated at 37° C. for 45-70 minutes and each plate was read at 450 nm on a microplate reader. The data was edited using SoftMax Pro and a 4-P fitting curve was plotted. […]

[4] = test system: 22RV1 (human prostate cancer cells); assay: Inhibition of cell line proliferation, CCK8; assay type: cell-based; conditions: for IC50 ratio (MMAE/conjugate): 22RV1; for IC50: 22RV1, 68-72 hours, CCK8
Description: as §2
Experimental operations: LNCaP and 22RV1 cells were prepared in advance, counted, and plated in 96-well cell culture plates at a cell density of 4×10^4 cells/ml and 2.0×10^4 cells/ml, respectively (100 μl/well); negative control and blank control wells were set on each plate. After adherent cell culture overnight, the diluted samples to be tested were added at 50 μl/well. The plates were placed in an incubator at 37° C., 5% CO2 and cultured for 68-72 hours. To each well, 15 μl (10% of the liquid volume in a well) of a color developing solution from CCK8 was added; and the plates were incubated at 37° C. for 45-70 minutes and each plate was read at 450 nm on a microplate reader. The data was edited using SoftMax Pro and a 4-P fitting curve was plotted.

[5] = test system: KB, T-47D, NCI-H460, CALU-3, HuH-7, and LNCaP tumor cell lines; assay: Inhibition of tumor cell expansion, CCK8 (CB-60SK); assay type: cell-based, human
Method: (§3) Cell lines: KB human oral epidermoid carcinoma cells, T-47D human breast cancer cells, NCI-H460 human lung cancer cells, CALU-3 human lung adenocarcinoma cells, HuH-7 human liver cancer cells and LNCaP human prostate cancer cells
(§4) The cells were prepared in advance, digested with trypsin, collected and counted; with a complete cell culture medium, KB cells were diluted to 2.5×10^4 cells/ml, T-47D cells were diluted to 1.3×10^4 cells/ml, NCI-H460 cells were diluted to 3.5×10^4 cells/ml, CALU-3 cells were diluted to 4.0×10^4 cells/ml, HuH-7 cells were diluted to 3.0×10^4 cells/ml, and LNCaP cells were diluted to 8.0×10^4 cells/ml; 100 μl of the diluted cell solution was added to each well; and negative control and blank control wells were set on each plate. The 96-well plates added with the cells were placed in an incubator at 37° C., 5% CO2 for culturing overnight.
The samples were diluted with a culture medium to desired concentrations (see Table 14). […]
as §1

[6] = test system: KB, T-47D, NCI-H460, CALU-3, HuH-7, and LNCaP tumor cell lines; assay: Inhibition of tumor cell expansion, CCK8 (CB-60S); assay type: cell-based, human
Method: as §3
as §4, with “2.0×10^4” for “2.5×10^4”, “1.5×10^4” for “1.3×10^4”, “2.0×10^4” for “3.5×10^4”, “3.0×10^4” for “4.0×10^4”, “4.0×10^4” for “3.0×10^4”, “well of 96-well plates;” for “well;”
The samples were diluted with a culture medium to desired concentrations (see Table 13). […]
as §1

[7] = molecular target: FOLH1 (Homo sapiens, UniProt Q04609); assay: BIAcore T200: binding of FOLH1 to compound-FOLR1 complex; design: purchased Sino Biologicals (FOLH1); R&D System (FOLR1) 15877-H07H (FOLH1); 5646-FR (FOLR1)
Description: CM5 chip was conjugated with a ligand: FOLR1 (R&D System, Cat #: 5646-FR)
Analyte: CB-20BK, FA-MMAE and FOLH1 (Sino Biologicals, Cat #: 15877-H07H)
According to BIAcore T200 (GE) operating manual, FOLR1 was conjugated to the CM5 chip; CB-20BK or FA-MMAE was loaded first, and then FOLH1 was loaded; and the binding of FOLH1 to the CB-20BK-FOLR1 complex was detected.

Chain of FOLH1 (Q04609 44-750 limits assumed): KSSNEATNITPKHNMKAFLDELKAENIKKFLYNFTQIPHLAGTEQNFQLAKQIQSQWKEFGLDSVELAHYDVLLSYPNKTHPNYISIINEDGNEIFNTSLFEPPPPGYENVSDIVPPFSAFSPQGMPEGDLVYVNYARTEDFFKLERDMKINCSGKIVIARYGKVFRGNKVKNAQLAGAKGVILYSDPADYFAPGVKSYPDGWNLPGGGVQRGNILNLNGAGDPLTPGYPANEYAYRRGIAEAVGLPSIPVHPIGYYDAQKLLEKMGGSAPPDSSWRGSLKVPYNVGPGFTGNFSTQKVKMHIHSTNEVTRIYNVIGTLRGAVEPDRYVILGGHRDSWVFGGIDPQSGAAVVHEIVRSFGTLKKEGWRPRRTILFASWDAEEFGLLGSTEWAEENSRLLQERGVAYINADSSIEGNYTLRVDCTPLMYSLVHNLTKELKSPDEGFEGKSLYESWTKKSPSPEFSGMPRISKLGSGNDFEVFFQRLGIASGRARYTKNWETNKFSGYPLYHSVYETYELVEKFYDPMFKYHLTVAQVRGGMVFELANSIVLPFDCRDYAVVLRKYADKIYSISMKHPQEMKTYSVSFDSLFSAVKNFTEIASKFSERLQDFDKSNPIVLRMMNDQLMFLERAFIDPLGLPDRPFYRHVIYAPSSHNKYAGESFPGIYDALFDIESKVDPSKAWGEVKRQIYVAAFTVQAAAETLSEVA
Chain of FOLH1 (P15328 25-233 partner limits assumed): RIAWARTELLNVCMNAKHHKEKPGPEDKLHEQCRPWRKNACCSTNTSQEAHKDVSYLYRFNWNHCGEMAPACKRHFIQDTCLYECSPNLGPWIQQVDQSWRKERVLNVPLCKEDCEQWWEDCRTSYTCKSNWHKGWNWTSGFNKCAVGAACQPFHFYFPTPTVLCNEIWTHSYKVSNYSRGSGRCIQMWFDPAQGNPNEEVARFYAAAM
T1 sequence (P15328 25-233 limits assumed): as the sequence (P15328 25-233 partner limits assumed) above

In the case of `CCc1c2c(nc3ccc(O)cc13)-c1cc3c(c(=O)n1C2)COC(=O)[C@@]3(CC)OC(=O)OCc1ccc(NC(=O)COCC(=O)NCCOCCOCCOCCOCCOCCn2nncc2CNC(=O)CCCCCN2C(=O)CC(SC[C@H](NC(=O)CC[C@H](NC(=O)c3ccc(NCc4cnc5[nH]c(N)nc(=O)c5n4)cc3)C(=O)O)C(=O)N[C@@H](CCCCN)C(=O)N[C@@H](CCC(=O)O)C(=O)N[C@@H](Cc3ccccc3)C(=O)N[C@@H](CC(C)C)C(=O)N[C@@H](Cc3cnc[nH]3)C(=O)N3CCC[C@H]3C(=O)N[C@@H](CO)C(=O)N[C@@H](CCCCN)C(=O)NC(C(=O)N[C@@H](CC(=O)O)C(=O)N[C@@H](CC(C)C)C(=O)N3CCC[C@H]3C(=O)N[C@@H](CCCNC(=N)N)C(=O)O)C(C)C)C2=O)cc1` (some centres unmarked) [CB-10S] ({Pteroyl-γGlu}-C(X6)KEFLHPSK[ξV]DLPR-OH), the “inhibitory effect on growth and expansion of tumor cell lines” value (from here on “inhibitory effect”) ([1]; 72 hours, CCK-8) is reported as “has an inhibitory effect” and the “IC50 compared between cell lines” value ([1]; KB, LNcap, T-47D and RT4 versus NCI-H460) is reported as “significantly lower”.
In the case of `CC[C@H](C)[C@@H]([C@@H](CC(=O)N1CCC[C@H]1[C@H](OC)[C@@H](C)C(=O)N[C@H](C)[C@@H](O)c1ccccc1)OC)N(C)C(=O)[C@@H](NC(=O)[C@H](C(C)C)N(C)C(=O)OCc1ccc(NC(=O)C(CCCNC(N)=O)NC(=O)[C@@H](NC(=O)CCCCCN2C(=O)CC(SCC(NC(=O)[C@H](CCCCN)NC(=O)[C@H](CC(=O)O)NC(=O)[C@H](CC(=O)O)NC(=O)Cc3ccc(CNC(=O)NCCCC[C@H](NC(=O)N[C@@H](CCC(=O)O)C(=O)O)C(=O)O)cc3)C(N)=O)C2=O)C(C)C)cc1)C(C)C` (some centres unmarked) [CB-20AK, reference compound] (I: V[ξCit][PABC][NMeV]V[Dil][Dolaproine]-X1 / II: {EuK-CO}-[X2]DDK[ξC]-NH2; linker I:N-II:5 via X3), the “specific binding to FOLR1 (in words)” value ([2]; BIAcore T200) is reported as “has not been detected to specifically bind to FOLR1”, the “IC50 ratio (MMAE/conjugate)” value [3] is reported as 0.025 and the IC50 [3] is reported as 102 nM. The “IC50 ratio (MMAE/conjugate)” value [4] was 0.006 and the IC50 [4] was 1050 nM.
For `CCc1c2c(nc3ccc(O)cc13)-c1cc3c(c(=O)n1C2)COC(=O)[C@@]3(CC)OC(=O)OCc1ccc(NC(=O)[C@H](CCCNC(N)=O)NC(=O)COCC(=O)NCCOCCOCCOCCOCCOCCn2cc(C[C@H](NC(=O)[C@H](CCCCN)NC(=O)[C@H](CC(=O)O)NC(=O)[C@H](CC(=O)O)NC(=O)Cc3ccc(CNC(=O)NCCCC[C@H](NC(=O)N[C@@H](CCC(=O)O)C(=O)O)C(=O)O)cc3)C(=O)N[C@@H](CCCCNC(=O)CC[C@H](NC(=O)c3ccc(NCc4cnc5[nH]c(N)nc(=O)c5n4)cc3)C(=O)O)C(N)=O)nn2)cc1` [CB-60SK], the “inhibitory effect” value ([5]; 72 hours, CCK-8) was “has an inhibitory effect” and the “IC50 compared between cell lines” value ([5]; LNCaP and HuH-7 versus T-47D, NCI-H460, CALU-3 and KB) was “significantly lower”.
`CCc1c2c(nc3ccc(O)cc13)-c1cc3c(c(=O)n1C2)COC(=O)[C@@]3(CC)OC(=O)OCc1ccc(NC(=O)[C@H](CCCNC(N)=O)NC(=O)COCC(=O)NCCOCCOCCOCCOCCOCCn2cc(C[C@H](NC(=O)[C@H](CC(=O)O)NC(=O)[C@H](CC(=O)O)NC(=O)Cc3ccc(CNC(=O)NCCCC[C@H](NC(=O)N[C@@H](CCC(=O)O)C(=O)O)C(=O)O)cc3)C(=O)N[C@@H](CCCCNC(=O)CC[C@H](NC(=O)c3ccc(NCc4cnc5[nH]c(N)nc(=O)c5n4)cc3)C(=O)O)C(N)=O)nn2)cc1` [CB-60S] was tested, and the “inhibitory effect” value ([6]; 72 hours, CCK-8) was “has an inhibitory effect” and the “IC50 compared between cell lines” value ([6]; LNCaP and HuH-7 versus NCI-H460, KB, T-47D and CALU-3) was “significantly lower”.
For `CC[C@@]1(O)C(=O)OCc2c1cc1n(c2=O)Cc2c-1nc1cc(F)c(C)c3c1c2[C@@H](NC(=O)COCNC(=O)CNC(=O)[C@H](Cc1ccccc1)NC(=O)CNC(=O)CNC(=O)CCCCCN1C(=O)CC(SC[C@H](NC(=O)CC[C@H](NC(=O)c2ccc(NCc4cnc5[nH]c(N)nc(=O)c5n4)cc2)C(=O)O)C(=O)N[C@@H](CCCCN)C(N)=O)C1=O)CC3` (some centres unmarked) [FA-MMAE, reference compound], the kd ([2]; FOLR1 on CM5 chip, N/D = no specific binding was detected) was 0.000115 s⁻¹, the kon ([2]; read-out: ka) was 1.79e+06 M⁻¹ s⁻¹ and the “IC50 ratio (MMAE/conjugate)” value [3] was 0.010. For the same compound, the “IC50 ratio in LNCaP relative to IC50 ratio in 22RV1 (times higher / factor)” value ([3]; LNCaP versus 22RV1) was 1.5, the IC50 [3] was 264 nM and the “IC50 ratio (MMAE/conjugate)” value [4] was 0.006. The IC50 [4] was 1010 nM, the “Binding of compound-FOLR1 complex to FOLH1 solution” value (from here on “Binding of compound-FOLR1 complex”) ([7]; FOLH1 concentration 0.0625 μM) was −1 RU and the “Binding of compound-FOLR1 complex” value ([7]; FOLH1 concentration 0.125 μM) was 4.2 RU. For the same compound, the “Binding of compound-FOLR1 complex” value ([7]; FOLH1 concentration 0.25 μM) was 8.4 RU, the “Binding of compound-FOLR1 complex” value ([7]; FOLH1 concentration 0.5 μM) was 9.8 RU and the “amount of FOLH1 bound to compound-FOLR1 complex (in words)” value ([7]; FOLH1 solution at a high concentration) was “tends to saturate at a high concentration”.

— patent US20220175761A1, “BI-LIGAND DRUG CONJUGATE AND USE THEREOF” (COHERENT BIOPHARMA (SUZHOU), LIMITED, priority 2019, published 2022)
